Laboratory results taken from patent publication US20210246128A1, “BICYCLE TOPOISOMERASE I INHIBITING COMPOUNDS, PROCESS FOR PREPARATION AND USE THEREOF” (Council of Scientific & Industrial Research, priority 2018, published 2021).
Values after ≈ are worked out from the molar mass of the structure shown.

Columns and labels:
[1] = Solubility assay (pH 7.4 pION buffer, UV); assay type: physicochemical; settings: pH 7.4 pION buffer, aqueous buffer, kinetic from dmso stock; pH 7.4 buffer, 18 hours incubation; read-out: Avg. Solubility (μg/mL) at pH 7.4
Method in brief: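 Compound from 20 mM DMSO stock diluted to 200 μM in pH 7.4 pION buffer (<1.0% DMSO) and incubated 18 h sealed. Samples vacuum-filtered, filtrate mixed 1:1 with acetonitrile and UV absorbance read at 240 nm against an acetonitrile/buffer reference of the stock.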

[2] = molecular target: T1, human TopI-DNA cleavage complexes (TopIcc) (Homo sapiens, UniProt P11387); assay: Plasmid DNA cleavage assay; assay type: biochemical; settings: compared with CPT, FIG. 3 and 4
T1 sequence (P11387 1-765): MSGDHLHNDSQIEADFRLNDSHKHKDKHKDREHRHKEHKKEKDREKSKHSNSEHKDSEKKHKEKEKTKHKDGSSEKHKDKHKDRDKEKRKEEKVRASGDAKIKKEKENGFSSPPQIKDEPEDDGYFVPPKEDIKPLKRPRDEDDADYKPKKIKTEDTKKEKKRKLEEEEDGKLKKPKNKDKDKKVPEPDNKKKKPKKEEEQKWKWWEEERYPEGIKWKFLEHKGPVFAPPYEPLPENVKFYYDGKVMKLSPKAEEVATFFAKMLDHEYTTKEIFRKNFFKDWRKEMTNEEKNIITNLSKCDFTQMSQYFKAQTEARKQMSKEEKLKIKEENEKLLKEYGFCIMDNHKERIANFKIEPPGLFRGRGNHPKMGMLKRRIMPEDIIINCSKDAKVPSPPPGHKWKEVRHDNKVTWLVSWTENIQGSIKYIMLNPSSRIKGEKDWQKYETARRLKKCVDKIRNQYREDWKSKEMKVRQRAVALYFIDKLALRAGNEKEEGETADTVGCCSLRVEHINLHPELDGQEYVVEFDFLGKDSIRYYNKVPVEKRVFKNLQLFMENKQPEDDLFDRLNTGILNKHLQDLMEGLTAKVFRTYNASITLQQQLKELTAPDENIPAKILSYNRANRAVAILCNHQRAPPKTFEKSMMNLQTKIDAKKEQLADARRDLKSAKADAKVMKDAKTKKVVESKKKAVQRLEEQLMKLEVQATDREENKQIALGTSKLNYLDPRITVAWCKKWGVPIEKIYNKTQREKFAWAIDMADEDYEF
Method: Cleavage reaction and electrophoresis in agarose gel were performed as described in B. Kundu, J. Med. Chem. 2019, 62, 3428-3446. Lane 1 comprises 50 fmol of pBluescript (SK^+) supercoiled DNA. Lanes 2-9 are same as lane 1 but incubated with equal amounts (100 fmol) of HTopI at the indicated concentration of CPT or compound 24 or only DMSO.
The mechanism of TopI inhibition with compound 24 in the plasmid DNA cleavage assays was investigated.

- solubility at 18 h [1]: 27.2 µg/mL (≈ 66 µM)
SMILES: Nc1ccc(-c2ccc3ncc(-c4nnco4)c(NCCCn4ccnc4)c3c2)cn1 [Compound 24, N-(3-(1H-imidazol-1-yl)propyl)-6-(6-aminopyridin-3-yl)-3-(1,3,4-oxadiazol-2-yl)quinolin-4-amine]
- stabilisation/trapping of TopI-DNA cleavage complexes (TopIcc) [2]: capable of stabilising TopIcc formation like CPT
